Key:
[1] = molecular target: T1, Mhp1 (Microbacterium maritypicum, UniProt D6R8X8); assay: tryptophan fluorescence quenching titration; type: binding; settings: 140 mM NaCl (also 15 and 1000 mM)
T1 construct: gene hyuP; full-length wild type with C-terminal His6 tag, purified in DDM

[2] = molecular target: T1, Mhp1; assay: NEM labelling of Cys327 with intact mass spectrometry, protection by ligand; type: binding; settings: 140 mM Na+, pH 8, 25 °C, 0.05% DDM

T1 sequence (D6R8X8 whole entry): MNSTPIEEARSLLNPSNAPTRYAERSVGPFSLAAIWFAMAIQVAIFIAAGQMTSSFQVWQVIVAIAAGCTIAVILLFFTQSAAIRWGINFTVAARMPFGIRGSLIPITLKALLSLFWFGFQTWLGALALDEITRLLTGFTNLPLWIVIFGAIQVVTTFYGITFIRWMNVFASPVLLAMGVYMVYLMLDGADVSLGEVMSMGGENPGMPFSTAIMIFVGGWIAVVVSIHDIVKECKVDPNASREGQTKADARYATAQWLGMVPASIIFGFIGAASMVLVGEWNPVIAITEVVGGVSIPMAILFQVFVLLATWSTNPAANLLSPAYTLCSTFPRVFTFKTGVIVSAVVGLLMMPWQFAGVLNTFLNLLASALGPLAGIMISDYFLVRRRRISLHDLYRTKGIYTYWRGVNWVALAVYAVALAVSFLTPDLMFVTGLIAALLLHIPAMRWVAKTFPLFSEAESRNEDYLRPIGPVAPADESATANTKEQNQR

reduction in NEM labeling at 2 mM [2]	SMILES	Kd app [1]
–	O=C1NC(=O)[C@H](Cc2ccccc2)N1 [L-BH, 5-benzyl-L-hydantoin]	Tryptophan fluorescence quenching of Mhp1 upon titration with L-BH
5-indolylmethyl-L-hydantoin (L-IMH)	O=C1NC(=O)[C@H](Cc2c[nH]c3ccccc23)N1 [L-IMH, 5-indolylmethyl-L-hydantoin]	–
